In patent US20090148883A1, “BIOMARKER FOR ASSESSING RESPONSE TO FMS TREATMENT” (priority 2007, published 2009):
Values joined by “and” are separate entries in the source; they are usually repeats but may differ in a detail not shown here. Equal entries are not always repeated.

What was measured:
[1] = tested on: CSF-1; test: Plasma CSF-1 biomarker in rats, Example 2 (po bid 5 days); format: in vivo, rat; conditions: 40 mg/kg po bid, control ~75 pg/ml
Description: (§1) Groups of female Sprague Dawley rats (n=5) were orally administered 5 or 15 mg/kg of COMPOUND 2 or 40 mg/kg COMPOUND 1 twice per day for 5 consecutive days to characterize compound tolerability. Additional groups of rats, treated with vehicle or 40 mg/kg COMPOUND 1, were terminated one hour after the a.m. dose on Days 1 and 3 for interim analysis of various parameters. Post-mortem analysis of all treated animals included standard necropsy with liver histology evaluation as well as standard hematology and serology. None of the animals were found dead or were euthanized (moribund) prior to scheduled termination. None of the treatments affected body weight or the organ:body weight ratio of selected organs (i.e., liver, thymus, spleen & uterus). […] Both compounds, at the highest dose tested, decreased the number of macrophages in the uterus (up to ˜60% for COMPOUND 2) on Day 5 however, this parameter was highly variable.
On Day 0, the rats were ear tagged, randomized into the treatment groups (Groups 1 & 4: n=15, Groups 2 & 3: n=5), weighed and treated (po, bid) with either vehicle (20% HPbCD) or the test articles as delineated in Table 2 (Allocation of Treatment Groups).
(§2) On Days 1 & 3, one hour after a.m. dose, five rats from Groups 1 and 4 were euthanized using CO2 asphyxiation and exsanguinated via cardiac puncture. Blood samples (˜500 μL) were transferred to separate ethylenediaminetetraacetic acid (EDTA) microtainers and a complete blood count (CBC) was conducted using the Advia 120 Hematology System (Bayer Diagnostics, Tarrytown, N.Y.). Additional blood samples were transferred to separate microtainers (with or without anticoagulant) and processed for biomarker (i.e., MCSF-1) and serologic (i.e., AST/ALT) analysis. The liver and thymus were weighed and discarded. The spleens were weighed and zap-frozen and the uteri (without ovaries attached) were weighed and fixed in 10% buffered formalin. The macrophage content of the uterus was determined immunohistochemically using a macrophage-specific (ED-1) antibody.
On Day 5, rats were euthanized using carbon dioxide and exsanguinated via cardiac puncture. Blood samples (˜500 μL) were collected and processed as described above for CBC, biomarker analysis and serology. The liver, spleen, thymus and uterus (without ovaries attached) were isolated, weighed and fixed in buffered formalin. The right knee with femur attached was isolated, trimmed and fixed in formalin. The left femur was isolated for determination of bone marrow cell counts. Liver histopathology was also conducted.
Differences between treated and control groups were analyzed statistically by ANOVA with a Dunnett's Multiple Comparison post-test. (p value; *:<0.05, **:<0.01).

[2] = tested on: BMDM; test: CSF-1-induced BMDM proliferation; format: cell-based; conditions: Mus musculus, data not shown, read-out: IC50 for inhibition of CSF-1-induced BMDM proliferation
[3] = Tolerability in rats, Example 2; format: in vivo; conditions: 5 or 15 mg/kg COMPOUND 2 or 40 mg/kg COMPOUND 1, po bid, 5 consecutive days
Description: as §1, with “variable. […]” for “variable.”
On Days 1 & 3, one hour after a.m. dose, five rats from Groups 1 and 4 were euthanized using CO2 asphyxiation and exsanguinated via cardiac puncture. […] The macrophage content of the uterus was determined immunohistochemically using a macrophage-specific (ED-1) antibody. […]

[4] = tested on: bone marrow derived macrophages (BMDM); test: Clearance of CSF-1 by bone marrow derived macrophages in vitro (CSF-1 ELISA of conditioned media); format: cell-based, mouse; conditions: for Reduction of rate of CSF-1 consumption: slopes through 4.9 hours
Description: COMPOUND 1 was provided as a 10 mM stock in dimethyl sulfoxide (DMSO).Recombinant mouse CSF-1 (416 mL 050) and mouse CSF-1 ELISA (MNC00) were both purchased from R&D Systems Inc., (Minneapolis, Minn.). Mouse bone marrow-derived macrophage (BMDM) were prepared and were plated into 12 well plates in the presence of culture media (αMEM containing 10% FCS and glutamine PenStrep) and 25 ng/mL CSF-1 for three days until approximately 60% confluency was achieved. The cultures were then washed twice with media without CSF-1, and cultured for 2 hrs in the absence of CSF-1 to allow the macrophages to consume CSF-1 that may have been residual to the wells. The cultures were next adjusted to contain CSF-1 and COMPOUND 1 as indicated in Table 1 (Experimental Design) and incubation was continued at 37° C. and 5% CO2. […] At timed-intervals (0, 1.1, 2.3, 4.9, 10.3, 19.9, 29, and 44 hours) 50 μl of conditioned media were removed from each well and saved under refrigeration. After harvest of the last time point, all samples were subjected to CSF-1 ELISA. CSF-1 concentrations (pg/mL) vs time were plotted for each well using linear linear and log linear formats. Consumption was log linear over the first 4.9-hours. Excel was used to calculate a best fit linear equation describing CSF-1 consumption for each well through 4.9 hours and slopes were used to determine the relative rates of consumption.

[5] = tested on: ED-1 positive macrophages in the uterus; test: Macrophage content of the uterus (ED-1 immunohistochemistry) in rats, Example 2; format: in vivo, rat; conditions: highest dose tested (COMPOUND 2 15 mg/kg, COMPOUND 1 40 mg/kg po bid), Day 5; highly variable
Description: as §1, §2
On Day 5, rats were euthanized using carbon dioxide and exsanguinated via cardiac puncture. […]
Differences between treated and control groups were analyzed statistically by ANOVA with a Dunnett's Multiple Comparison post-test. […]

[6] = tested on: CSF-1; test: Plasma CSF-1 after single ascending oral doses in healthy male subjects (Human CSF-1 ELISA); format: in vivo; conditions: individual subjects (placebo subjects not identified); for Plasma CSF-1 Fold Change from Baseline: 1200 mg single oral dose cohort
Description: The safety and tolerability of single ascending, oral doses of COMPOUND 1 in healthy male subjects was assessed. Blood samples were collected on Day 1 predose and at 2, 4, 8, 12, 24 and 48 hours postdose and assessed for biomarker. Analysis of the biomarker was performed for all subjects receiving at least one dose of COMPOUND 1 or placebo as set forth in Table 5.
4 mL venous blood samples were collected on Day 1, within 60 minutes (predose), 2, 4, 8, 12, 24, and 48 hours postdose and 3 mL on Day 1 predose, 2 and 8 hours postdose for assessment of the effect of COMPOUND 1 on plasma CSF-1.
Plasma CSF-1 levels were measured using R&D Systems Human CSF-1 ELISA. Samples were diluted 1:5 for assay. Assay range for standards is 31-2000 pg/mL. Maximum measurable plasma concentration is ˜10000 pg/ml. Current maximum measured concentration ˜4000 pg/ml.

Compound: CN(C)CC(=O)N1CCC(c2ccc(NC(=O)c3nc(C#N)c[nH]3)c(C3=CCCCC3)c2)CC1.Cl [COMPOUND 1]
- Mean plasma CSF-1 level ([1]; Day 1): 112 pg/mL
- Mean plasma CSF-1 level ([1]; Day 3): 314 pg/mL
- Mean plasma CSF-1 level ([1]; Day 5): 526 pg/mL
- IC50 [2]: 2.6 nM
- Effect on appearance, behavior, body weight or organ:body weight ratio (liver, spleen, thymus) [3]: did not have an observable effect
- Reduction of rate of CSF-1 consumption ([4]; 0.001 μM, 1 ng/mL CSF-1): 16%
- Reduction of rate of CSF-1 consumption ([4]; 0.01 μM, 1 ng/mL CSF-1): 56%
- Reduction of rate of CSF-1 consumption ([4]; 0.1 μM, 1 ng/mL CSF-1): 64%
- Portion of CSF-1 clearance not inhibited ([4]; 1 uM): ~36%
- Reduction of rate of CSF-1 consumption ([4]; 1 μM, 1 ng/mL CSF-1): 64%
- IC50 ([4]; Mus musculus, BMDM, 1 ng/mL CSF-1, read-out: Half-maximal inhibition of CSF-1 consumption): 1 to 10 nM
- Portion of CSF-1 clearance that can be inhibited ([4]; based on consumption rates, plateau): ~64%
- Effect on macrophage content of the uterus [5]: decreased the macrophage content of the uterus
- Plasma CSF-1 Fold Change from Time 0 ([6]; 150 mg single oral dose cohort, 2 hours postdose): 1.8 fold (2×) and 2.5 fold and 2.0 fold and 0.8 fold (2×) and 0.9 fold
- Plasma CSF-1 Fold Change from Time 0 ([6]; 150 mg single oral dose cohort, 4 hours postdose): 2.2 fold and 1.8 fold and 1.9 fold (2×) and 0.8 fold (2×) and 0.9 fold
- Plasma CSF-1 Fold Change from Time 0 ([6]; 150 mg single oral dose cohort, 8 hours postdose): 1.4 fold and 2.5 fold and 1.6 fold and 1.0 fold and 0.8 fold and 1.7 fold and 0.7 fold
- Plasma CSF-1 Fold Change from Time 0 ([6]; 150 mg single oral dose cohort, 12 hours postdose): 1.5 fold and 1.6 fold and 2.4 fold and 0.9 fold and 0.8 fold and 1.7 fold and 0.7 fold
- Plasma CSF-1 Fold Change from Time 0 ([6]; 150 mg single oral dose cohort, 24 hours postdose): 1.4 fold and 1.3 fold and 1.2 fold and 2.0 fold and 0.9 fold and 1.8 fold and 0.7 fold
- Plasma CSF-1 Fold Change from Time 0 ([6]; 150 mg single oral dose cohort, 48 hours postdose): 1.2 fold and 1.1 fold and 1.0 fold and 0.8 fold and 1.8 fold and 1.4 fold and 0.6 fold
- Plasma CSF-1 Fold Change from Time 0 ([6]; 300 mg single oral dose cohort, 2 hours postdose): 4.6 fold and 0.8 fold and 3.3 fold and 2.7 fold and 0.9 fold and 5.2 fold and 3.4 fold and 1.8 fold
- Plasma CSF-1 Fold Change from Time 0 ([6]; 300 mg single oral dose cohort, 4 hours postdose): 4.4 fold (2×) and 1.4 fold and 3.0 fold and 0.7 fold and 6.8 fold and 4.5 fold and 2.6 fold
- Plasma CSF-1 Fold Change from Time 0 ([6]; 300 mg single oral dose cohort, 8 hours postdose): 3.8 fold and 0.9 fold and 3.4 fold and 3.0 fold and 1.5 fold and 6.4 fold and 4.1 fold and 1.9 fold
- Plasma CSF-1 Fold Change from Time 0 ([6]; 300 mg single oral dose cohort, 12 hours postdose): 2.6 fold and 0.8 fold and 2.2 fold and 3.8 fold and 0.9 fold and 4.5 fold and 3.0 fold and 1.4 fold
- Plasma CSF-1 Fold Change from Time 0 ([6]; 300 mg single oral dose cohort, 24 hours postdose): 1.9 fold and 0.9 fold and 1.5 fold (3×) and 1.7 fold and 2.1 fold and 1.1 fold
- Plasma CSF-1 Fold Change from Time 0 ([6]; 300 mg single oral dose cohort, 48 hours postdose): 2.3 fold and 1.0 fold and 1.4 fold (2×) and 0.9 fold and 2.2 fold and 1.2 fold and 0.8 fold
- Plasma CSF-1 Fold Change from Time 0 ([6]; 600 mg single oral dose cohort, 2 hours postdose): 7.5 fold and 0.7 fold and 2.9 fold and 5.0 fold and 0.9 fold and 6.0 fold and 4.8 fold and 2.3 fold
- Plasma CSF-1 Fold Change from Time 0 ([6]; 600 mg single oral dose cohort, 4 hours postdose): 8.7 fold and 1.2 fold
- Plasma CSF-1 Fold Change from Baseline ([6]; 2 hours postdose): 5.4 fold and 4.9 fold and 0.8 fold and 4.4 fold (2×) and 6.8 fold and 0.5 fold and 3.5 fold
- Plasma CSF-1 Fold Change from Baseline ([6]; 4 hours postdose): 8.9 fold and 8.4 fold and 1.0 fold and 7.6 fold and 9.5 fold and 5.9 fold and 0.4 fold and 5.3 fold
- Plasma CSF-1 Fold Change from Baseline ([6]; 8 hours postdose): 9.9 fold and 9.8 fold and 1.0 fold and 11.3 fold and 13.4 fold and 6.9 fold and 0.4 fold and 7.8 fold
- Plasma CSF-1 Fold Change from Baseline ([6]; 12 hours postdose): 9.2 fold and 5.2 fold and 2.1 fold and 10.5 fold and 8.8 fold and 5.8 fold and 0.4 fold and 6.0 fold
- Plasma CSF-1 Fold Change from Baseline ([6]; 24 hours postdose): 4.7 fold and 1.4 fold and 1.0 fold and 6.1 fold and 2.9 fold and 3.2 fold and 0.4 fold and 1.8 fold
- Plasma CSF-1 Fold Change from Baseline ([6]; 48 hours postdose): 2.7 fold (2×) and 1.0 fold and 0.9 fold and 3.3 fold and 2.4 fold and 0.6 fold and 1.6 fold
